The target in this experiment is ROCK2 (Homo sapiens (Human), UniProt O75116). As to the kind of experiment: ROCK2 kinase inhibition assay (FITC peptide substrate, LABCHIP 3000 Reader). Type of experiment: biochemical. Conditions: 5 μM ATP, 1.5 μM peptide substrate. In a few lines: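 Reaction in 20 mM HEPES pH 7.5, 20 mM MgCl2, 0.015% Brij-35, 4 mM DTT with 5 μM ATP and 1.5 μM FITC-AHA-AKRRRLSSLRA-OH peptide, started with Rho kinase, DMSO <2%. EDTA-stopped; phospho and non-phospho peptide separated by mobility shift. IC50 from dose-response curve fit.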
ROCK2, sequence (O75116 whole entry, species assumed): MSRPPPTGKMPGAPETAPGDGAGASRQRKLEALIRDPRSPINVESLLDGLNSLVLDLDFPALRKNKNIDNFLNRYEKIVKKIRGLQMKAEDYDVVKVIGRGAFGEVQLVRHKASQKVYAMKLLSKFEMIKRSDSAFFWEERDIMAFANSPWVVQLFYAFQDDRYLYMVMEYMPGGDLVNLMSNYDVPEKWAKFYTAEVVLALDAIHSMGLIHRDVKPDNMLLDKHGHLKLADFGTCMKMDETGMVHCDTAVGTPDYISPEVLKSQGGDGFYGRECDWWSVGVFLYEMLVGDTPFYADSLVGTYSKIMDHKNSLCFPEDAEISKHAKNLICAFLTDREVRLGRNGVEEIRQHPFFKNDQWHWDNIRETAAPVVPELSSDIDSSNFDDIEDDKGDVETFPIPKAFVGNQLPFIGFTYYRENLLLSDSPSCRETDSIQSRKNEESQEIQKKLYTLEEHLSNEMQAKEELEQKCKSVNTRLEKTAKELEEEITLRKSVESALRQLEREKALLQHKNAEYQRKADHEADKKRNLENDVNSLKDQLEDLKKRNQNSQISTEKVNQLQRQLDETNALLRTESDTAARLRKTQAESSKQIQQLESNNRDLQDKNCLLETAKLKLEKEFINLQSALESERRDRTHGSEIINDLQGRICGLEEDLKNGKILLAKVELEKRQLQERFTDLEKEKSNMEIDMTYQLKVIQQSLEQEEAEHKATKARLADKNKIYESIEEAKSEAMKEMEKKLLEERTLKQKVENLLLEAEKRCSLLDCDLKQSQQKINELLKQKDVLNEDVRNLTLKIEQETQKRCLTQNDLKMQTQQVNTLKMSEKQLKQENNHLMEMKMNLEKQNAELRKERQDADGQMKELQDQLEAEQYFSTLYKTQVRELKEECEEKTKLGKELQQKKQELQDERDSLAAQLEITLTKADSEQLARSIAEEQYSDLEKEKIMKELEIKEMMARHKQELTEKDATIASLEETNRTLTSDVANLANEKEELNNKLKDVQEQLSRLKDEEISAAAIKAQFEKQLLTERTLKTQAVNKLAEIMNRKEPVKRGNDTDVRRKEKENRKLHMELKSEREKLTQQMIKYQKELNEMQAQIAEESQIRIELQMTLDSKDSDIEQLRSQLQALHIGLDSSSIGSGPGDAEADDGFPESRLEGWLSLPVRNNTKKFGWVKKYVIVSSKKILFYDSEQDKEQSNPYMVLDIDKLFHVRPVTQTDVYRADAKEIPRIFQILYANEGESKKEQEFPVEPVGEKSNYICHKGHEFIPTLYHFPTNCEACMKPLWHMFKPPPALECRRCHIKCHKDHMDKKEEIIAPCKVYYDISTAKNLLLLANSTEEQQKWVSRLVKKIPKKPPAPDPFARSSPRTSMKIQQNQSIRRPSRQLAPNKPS
In general, IC50 refers to the concentration needed to halve the response being measured. Read a low IC50 as higher potency. The compound `CCc1nc(N2CC3(CCN(C(=O)C4COC4)CC3)N(Cc3cccc(OC)c3)C2=O)ccc1-c1cn[nH]c1` [Example 185, 3-(6-ethyl-5-(1H-pyrazol-4-yl)pyridin-2-yl)-1-(3-methoxybenzyl)-8-(oxetane-3-carbonyl)-1,3,8-triazaspiro[4.5]decan-2-one] showed an IC50 of less than 3 nM. In the case of `CCc1nc(N2CC3(CCN(C(=O)CO)CC3)N(Cc3cc(F)cc(OC)c3)C2=O)ccc1-c1cn[nH]c1` [Example 186, 3-(6-ethyl-5-(1H-pyrazol-4-yl)pyridin-2-yl)-1-(3-fluoro-5-methoxybenzyl)-8-(2-hydroxyacetyl)-1,3,8-triazaspiro[4.5]decan-2-one], the IC50 is less than 3 nM. `CCc1nc(N2CC3(CCN(C(=O)C(C)(C)O)CC3)N(Cc3cc(F)cc(OC)c3)C2=O)ccc1-c1cn[nH]c1` [Example 187, 3-(6-ethyl-5-(1H-pyrazol-4-yl)pyridin-2-yl)-1-(3-fluoro-5-methoxybenzyl)-8-(2-hydroxy-2-methylpropanoyl)-1,3,8-triazaspiro[4.5]decan-2-one] came in with an IC50 of less than 3 nM.

Turning to `CCc1nc(N2CC3(CCN(C(=O)C(C)O)CC3)N(Cc3cc(F)cc(OC)c3)C2=O)ccc1-c1cn[nH]c1` (stereo not shown) [Example 188, 3-(6-ethyl-5-(1H-pyrazol-4-yl)pyridin-2-yl)-1-(3-fluoro-5-methoxybenzyl)-8-(2-hydroxypropanoyl)-1,3,8-triazaspiro[4.5]decan-2-one], the IC50 is less than 3 nM.

For the compound `Cc1c(F)cccc1CN1C(=O)N(c2ccc(-c3cn[nH]c3)cc2)CC12CCN(C(=O)C1(C)COC1)CC2` [Example 189, 3-(4-(1H-pyrazol-4-yl)phenyl)-1-(3-fluoro-2-methylbenzyl)-8-(3-methyloxetane-3-carbonyl)-1,3,8-triazaspiro[4.5]decan-2-one], the IC50 lay in the range of 3 to 30 nM. The value for `COc1cc(F)cc(CN2C(=O)N(c3ccc(-c4cn[nH]c4)cc3)CC23CCN(C(=O)C(C)(C)O)CC3)c1` [Example 190, 3-(4-(1H-pyrazol-4-yl)phenyl)-1-(3-fluoro-5-methoxybenzyl)-8-(2-hydroxy-2-methylpropanoyl)-1,3,8-triazaspiro[4.5] decan-2-one] was less than 3 nM; that for `COc1cccc(CN2C(=O)N(c3ccc(-c4cn[nH]c4)cc3)CC23CCN(C(=O)C(C)O)CC3)c1` (stereo not shown) [Example 191, 3-(4-(1H-pyrazol-4-yl)phenyl)-8-(2-hydroxypropanoyl)-1-(3-methoxybenzyl)-1,3,8-triazaspiro[4.5]decan-2-one] was less than 3 nM; that for `COc1cccc(CN2C(=O)N(c3ccc(-c4cn[nH]c4)cc3)CC23CCN(C(=O)C(C)(C)O)CC3)c1` [Example 192, 3-(4-(1H-pyrazol-4-yl)phenyl)-8-(2-hydroxy-2-methylpropanoyl)-1-(3-methoxybenzyl)-1,3,8-triazaspiro[4.5]decan-2-one] was less than 3 nM. `COc1cc(F)cc(CN2C(=O)N(c3ccc(-c4cn[nH]c4)cc3)CC23CCN(C(=O)C2(C)COC2)CC3)c1` [Example 193, 33-(4-(1H-pyrazol-4-yl)phenyl)-1-(3-fluoro-5-methoxybenzyl)-8-(3-methyloxetane-3-carbonyl)-1,3,8-triazaspiro[4.5]decan-2-one] came in with an IC50 of less than 3 nM. Consider `COc1cccc(CN2C(=O)N(c3ccc(-c4cn[nH]c4)cn3)CC23CCN(C(=O)C(F)F)CC3)c1` [Example 194, 3-(5-(1H-pyrazol-4-yl)pyridin-2-yl)-8-(2,2-difluoroacetyl)-1-(3-methoxybenzyl)-1,3,8-triazaspiro[4.5]decan-2-one], for which the IC50 was 3 to 30 nM. In turn, `COc1cccc(CN2C(=O)N(c3ccc(-c4cn[nH]c4)cn3)CC23CCN(C(=O)CO)CC3)c1` [Example 195, 3-(5-(1H-pyrazol-4-yl)pyridin-2-yl)-8-(2-hydroxyacetyl)-1-(3-methoxybenzyl)-1,3,8-triazaspiro[4.5]decan-2-one] had an IC50 of 3 to 30 nM. As for `COc1cccc(CN2C(=O)N(c3ccc(-c4cn[nH]c4)cn3)CC23CCN(C(=O)C2COC2)CC3)c1` [Example 196, 3-(5-(1H-pyrazol-4-yl)pyridin-2-yl)-1-(3-methoxybenzyl)-8-(oxetane-3-carbonyl)-1,3,8-triazaspiro[4.5]decan-2-one], the IC50 lay within 3 to 30 nM. Regarding `COCC(=O)N1CCC2(CC1)CN(c1ccc(-c3cn[nH]c3)cn1)C(=O)N2Cc1cccc(OC)c1` [Example 197, 3-(5-(1H-pyrazol-4-yl)pyridin-2-yl)-8-(2-methoxyacetyl)-1-(3-methoxybenzyl)-1,3,8-triazaspiro[4.5]decan-2-one], the IC50 was in the range of 3 to 30 nM. In the case of `COc1cccc(CN2C(=O)N(c3ccc(-c4cn[nH]c4)cn3)CC23CCN(C(=O)C(C)O)CC3)c1` (stereo not shown) [Example 198, 3-(5-(1H-pyrazol-4-yl)pyridin-2-yl)-8-(2-hydroxypropanoyl)-1-(3-methoxybenzyl)-1,3,8-triazaspiro[4.5]decan-2-one], the IC50 is 3 to 30 nM. On to `COc1cccc(CN2C(=O)N(c3ccc(-c4cn[nH]c4)cn3)CC23CCN(C(=O)C(C)(C)O)CC3)c1` [Example 199, 3-(5-(1H-pyrazol-4-yl)pyridin-2-yl)-8-(2-hydroxy-2-methylpropanoyl)-1-(3-methoxybenzyl)-1,3,8-triazaspiro[4.5]decan-2-one], for which the IC50 lay in the range of 3 to 30 nM. The value for `CCc1nc(N2CC3(CCN(C(=O)CC(C)C)CC3)N(Cc3cccc(OC)c3)C2=O)ccc1-c1cn[nH]c1` [Example 200, 3-(6-ethyl-5-(1H-pyrazol-4-yl)pyridin-2-yl)-1-(3-methoxybenzyl)-8-(3-methylbutanoyl)-1,3,8-triazaspiro[4.5]decan-2-one] was less than 3 nM; that for `CCc1nc(N2CC3(CCN(C(=O)C(C)C)CC3)N(Cc3cccc(OC)c3)C2=O)ccc1-c1cn[nH]c1` [Example 201, 3-(6-ethyl-5-(1H-pyrazol-4-yl)pyridin-2-yl)-8-isobutyryl-1-(3-methoxybenzyl)-1,3,8-triazaspiro[4.5]decan-2-one] was less than 3 nM; that for `CCc1nc(N2CC3(CCN(C(=O)C4CC(F)(F)C4)CC3)N(Cc3cccc(OC)c3)C2=O)ccc1-c1cn[nH]c1` [Example 202, 8-(3,3-difluorocyclobutane-carbonyl)-3-(6-ethyl-5-(1H-pyrazol-4-yl)pyridin-2-yl)-1-(3-methoxybenzyl)-1,3,8-triazaspiro[4.5]decan-2-one] was less than 3 nM. With `CCc1nc(N2CC3(CCN(C(=O)CN(C)C)CC3)N(Cc3cccc(OC)c3)C2=O)ccc1-c1cn[nH]c1` [Example 203, 8-(2-(dimethylamino)acetyl)-3-(6-ethyl-5-(1H-pyrazol-4-yl)pyridin-2-yl)-1-(3-methoxybenzyl)-1,3,8-triazaspiro[4.5]decan-2-one], the IC50 was less than 3 nM. As for `CCc1nc(N2CC3(CCN(C(=O)C(C)(C)CO)CC3)N(Cc3cccc(OC)c3)C2=O)ccc1-c1cn[nH]c1` [Example 204, 3-(6-ethyl-5-(1H-pyrazol-4-yl)pyridin-2-yl)-8-(3-hydroxy-2,2-dimethylpropanoyl)-1-(3-methoxybenzyl)-1,3,8-triazaspiro[4.5]decan-2-one], the IC50 was less than 3 nM. Under `CCc1nc(N2CC3(CCN(C(=O)C(C)(C)O)CC3)N(Cc3cccc(OC)c3)C2=O)ccc1-c1cn[nH]c1` [Example 205, 3-(6-ethyl-5-(1H-pyrazol-4-yl)pyridin-2-yl)-8-(2-hydroxy-2-methylpropanoyl)-1-(3-methoxybenzyl)-1,3,8-triazaspiro[4.5]decan-2-one] stands 3 to 30 nM.

Regarding `CCc1nc(N2CC3(CCN(C(=O)COC)CC3)N(Cc3cccc(OC)c3)C2=O)ccc1-c1cn[nH]c1` [Example 206, 3-(6-ethyl-5-(1H-pyrazol-4-yl)pyridin-2-yl)-8-(2-methoxyacetyl)-1-(3-methoxybenzyl)-1,3,8-triazaspiro[4.5]decan-2-one], the IC50 was less than 3 nM. `CCc1nc(N2CC3(CCN(C(=O)C4CCCO4)CC3)N(Cc3cccc(OC)c3)C2=O)ccc1-c1cn[nH]c1` (stereo not shown) [Example 207, 3-(6-ethyl-5-(1H-pyrazol-4-yl)pyridin-2-yl)-1-(3-methoxybenzyl)-8-(tetrahydrofuran-2-carbonyl)-1,3,8-triazaspiro[4.5]decan-2-one] had an IC50 of less than 3 nM.

Compound `CCc1nc(N2CC3(CCN(C(=O)C4CC(F)C4)CC3)N(Cc3cccc(OC)c3)C2=O)ccc1-c1cn[nH]c1` (stereo not shown) [Example 208, 3-(6-ethyl-5-(1H-pyrazol-4-yl)pyridin-2-yl)-8-(3-fluorocyclobutane-carbonyl)-1-(3-methoxybenzyl)-1,3,8-triazaspiro[4.5]decan-2-one] yielded an IC50 of 3 to 30 nM. The compound `COc1cccc(CN2C(=O)N(c3ncc(-c4cn[nH]c4)c(OC)n3)CC23CCN(C(=O)C2CC(F)(F)C2)CC3)c1` [Example 209, 8-(3,3-difluorocyclo-butanecarbonyl)-3-(4-methoxy-5-(1H-pyrazol-4-yl)pyrimidin-2-yl)-1-(3-methoxybenzyl)-1,3,8-triazaspiro[4.5]decan-2-one] returned an IC50 of 3 to 30 nM. The value for `COc1cccc(CN2C(=O)N(c3ncc(-c4cn[nH]c4)c(OC)n3)CC23CCN(C(=O)CN(C)C)CC3)c1` [Example 210, 8-(2-(dimethylamino)acetyl)-3-(4-methoxy-5-(1H-pyrazol-4-yl)pyrimidin-2-yl)-1-(3-methoxybenzyl)-1,3,8-triazaspiro[4.5]decan-2-one] was less than 3 nM; that for `COc1cccc(CN2C(=O)N(c3ncc(-c4cn[nH]c4)c(OC)n3)CC23CCN(C(=O)C(C)(C)CO)CC3)c1` [Example 211, 8-(3-hydroxy-2,2-dimethylpropanoyl)-3-(4-methoxy-5-(1H-pyrazol-4-yl)pyrimidin-2-yl)-1-(3-methoxybenzyl)-1,3,8-triazaspiro[4.5] decan-2-one] was 30 to 250 nM. The value for `COc1cccc(CN2C(=O)N(c3ncc(-c4cn[nH]c4)c(OC)n3)CC23CCN(C(=O)C(C)(C)O)CC3)c1` [Example 212, 8-(2-hydroxy-2-methylpropanoyl)-3-(4-methoxy-5-(1H-pyrazol-4-yl)pyrimidin-2-yl)-1-(3-methoxybenzyl)-1,3,8-triazaspiro[4.5]decan-2-one] was 3 to 30 nM.

For the origin of these results see US10787450B2 (BRISTOL-MYERS SQUIBB COMPANY, priority 2016, dated 2020).
